# Earlier results, collected in US9180152B2, “Method for treating psoriasis” (NIKKEN SOHONSHA CORPORATION, priority 2009, dated 2015).
# System: Psoriasis
# Settings: well-tolerated oral doses
smiles,measurement,value
CC1=C(/C=C/C(C)=C\C=C\C(C)=C\C(=O)O)C(C)(C)CCC1 [9-cis-retinoic acid],response of psoriasis,did not respond
